Test results from US6211244A, “Calcium receptor-active compounds” (priority 1995, dated 2001).

Target: T1, human calcium receptor (Homo sapiens, UniProt P41180, R990G)
T1 construct: expressed in transfected cells; host or cells: HEK 293
T1 sequence (P41180 20-1078 R990G): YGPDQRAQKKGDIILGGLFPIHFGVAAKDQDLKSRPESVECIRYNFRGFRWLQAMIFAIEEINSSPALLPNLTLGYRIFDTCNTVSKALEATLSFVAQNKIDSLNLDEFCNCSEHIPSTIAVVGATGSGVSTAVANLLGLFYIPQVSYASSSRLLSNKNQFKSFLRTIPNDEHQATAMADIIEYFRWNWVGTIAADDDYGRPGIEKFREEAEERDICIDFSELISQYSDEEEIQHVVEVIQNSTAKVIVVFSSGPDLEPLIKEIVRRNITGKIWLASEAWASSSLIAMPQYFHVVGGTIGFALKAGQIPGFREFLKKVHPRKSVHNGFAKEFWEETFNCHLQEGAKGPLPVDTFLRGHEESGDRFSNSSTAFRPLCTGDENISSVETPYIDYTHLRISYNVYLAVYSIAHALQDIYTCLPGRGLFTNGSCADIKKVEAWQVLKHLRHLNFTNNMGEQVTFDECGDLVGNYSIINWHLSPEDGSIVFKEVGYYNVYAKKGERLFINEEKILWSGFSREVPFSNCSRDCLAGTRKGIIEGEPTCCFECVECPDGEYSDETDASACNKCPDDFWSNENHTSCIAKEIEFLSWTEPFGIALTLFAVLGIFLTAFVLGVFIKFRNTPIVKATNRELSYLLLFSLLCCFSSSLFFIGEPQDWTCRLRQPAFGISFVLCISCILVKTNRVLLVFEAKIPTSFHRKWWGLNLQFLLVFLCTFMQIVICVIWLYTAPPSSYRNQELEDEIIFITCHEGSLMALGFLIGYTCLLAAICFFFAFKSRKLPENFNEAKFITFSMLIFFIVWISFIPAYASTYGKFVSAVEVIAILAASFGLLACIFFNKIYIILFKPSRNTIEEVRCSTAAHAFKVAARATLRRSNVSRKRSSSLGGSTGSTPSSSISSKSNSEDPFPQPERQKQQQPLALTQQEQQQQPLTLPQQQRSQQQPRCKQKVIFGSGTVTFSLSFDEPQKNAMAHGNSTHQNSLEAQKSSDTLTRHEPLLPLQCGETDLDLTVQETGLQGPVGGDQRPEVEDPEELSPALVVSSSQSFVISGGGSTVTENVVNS
Experiment: increases in [Ca^2+ ]i in HEK-293 cells expressing the human calcium receptor (fura-2 loaded HEK 293/pHuPCaR4.0 cells), % activity
Type: cell-based
Details: for activity at […]: HEK293

Row | SMILES | activity at […] (33 ng/mL) [%] | activity at […] (330 ng/mL) [%] | % activity (33 ng/mL) [%] | % activity (330 ng/mL) [%] | % activity (3300 ng/mL) [%]
1 | C[C@H](CCc1cccc(OC(F)(F)F)c1)N[C@@H](C)c1cccc2ccccc12 [Compound 22X, (S,R)-N-[4-(3-trifluoromethoxyphenyl)-2-butyl]-1-(1-naphthyl)ethylamine] | 48 | 86 | – | – | –
2 | C[C@H](CCc1cccc(OC(F)(F)F)c1)N[C@H](C)c1cccc2ccccc12 [Compound 22Y, (R,R)-N-[4-(3-trifluoromethoxyphenyl)-2-butyl]-1-(1-naphthyl)ethylamine] | 64 | 114 | – | – | –
3 | COc1cccc([C@@H](C)N[C@H](C)CCc2cccc(OC(F)(F)F)c2)c1 [Compound 23A, (R,R)-N-[4-(3-trifluoromethoxyphenyl)-2-butyl]-1-(3-methoxyphenyl)ethylamine] | – | – | 67 | 103 | –
4 | Cc1ccc(CNCc2cccc3c(Br)cccc23)cc1C [Compound 23D] | – | – | 35 | 66 | 91
5 | C[C@@H](NCc1cccc(OC(F)(F)F)c1)c1cccc2ccccc12 [Compound 23E] | – | – | 102 | 113 | 137
6 | C[C@@H](NCc1ccc(OC(F)(F)F)cc1)c1cccc2ccccc12 [Compound 23F] | – | – | 45 | 82 | –
7 | COc1ccc(CNC(C)c2ccccc2)cc1C (stereo not shown) [Compound 23G] | – | – | 67 | 93 | 127
8 | COc1ccc(CNC(C)c2ccccc2OC)cc1C (stereo not shown) [Compound 23H] | 77 | 114 | – | – | –
9 | COc1cccc(C(C)NCc2ccc(OC)c(C)c2)c1 (stereo not shown) [Compound 23I] | – | – | 58 | 102 | –
10 | COc1ccc(CNC(C)c2ccccc2F)cc1C (stereo not shown) [Compound 23J] | – | – | 51 | 61 | 102
11 | COc1ccc(CNC(C)c2cccc(F)c2)cc1C (stereo not shown) [Compound 23K] | – | – | 72 | 107 | 106
12 | COc1ccc(CNC(C)c2ccc(F)cc2)cc1C (stereo not shown) [Compound 23L] | – | – | 37 | 77 | 107
13 | COc1ccc(CNC(C)c2ccccc2Cl)cc1C (stereo not shown) [Compound 23M] | – | – | 74 | 97 | 113
14 | COc1ccc(CNC(C)c2cccc(Cl)c2)cc1C (stereo not shown) [Compound 23N] | – | – | 50 | 96 | –
15 | COc1ccc(CNC(C)c2ccc(Cl)cc2)cc1C (stereo not shown) [Compound 23O] | – | – | 46 | 79 | 111
16 | COc1ccc(CNC(C)c2ccccc2Br)cc1C (stereo not shown) [Compound 23P] | – | – | 70 | 99 | 125
17 | COc1ccc(CNC(C)c2cccc(Br)c2)cc1C (stereo not shown) [Compound 23Q] | – | – | 98 | 114 | 122
18 | COc1ccc(CNC(C)c2ccc(Br)cc2)cc1C (stereo not shown) [Compound 23R] | – | – | 54 | 86 | 104
19 | COc1ccc(CNC(C)c2cccc(I)c2)cc1C (stereo not shown) [Compound 23S] | – | – | 53 | 97 | –
20 | COc1ccc(CNC(C)c2ccc(I)cc2)cc1C (stereo not shown) [Compound 23T] | – | – | 60 | 74 | 102
21 | COc1ccc(CNC(C)c2cccc(C(C)=O)c2)cc1C (stereo not shown) [Compound 23U] | – | – | 48 | 87 | –
22 | COc1ccc(CNC(C)c2ccccc2C)cc1C (stereo not shown) [Compound 23W] | – | – | 81 | 97 | 117
23 | COc1ccc(CNC(C)c2cccc(C)c2)cc1C (stereo not shown) [Compound 23X] | – | – | 49 | 94 | –
24 | COc1ccc(CNC(C)c2cccc(C)c2)cc1C (stereo not shown) [Compound 23Y] | – | – | 61 | 87 | 106
25 | CCc1cccc(C(C)NCc2ccc(OC)c(C)c2)c1 (stereo not shown) [Compound 23Z] | – | – | 100 | 126 | 129

Row | SMILES | activity at […] (33 ng/mL) [%] | activity at […] (330 ng/mL) [%] | % activity (33 ng/mL) [%] | % activity (330 ng/mL) [%] | % activity (3300 ng/mL) [%]
26 | CCc1ccc(C(C)NCc2ccc(OC)c(C)c2)cc1 (stereo not shown) [Compound 24A] | – | – | 52 | 85 | 122
27 | COc1ccc(CNC(C)c2ccccc2C(F)(F)F)cc1C (stereo not shown) [Compound 24B] | – | – | 34 | 61 | 76
28 | COc1ccc(CNC(C)c2cccc(C(F)(F)F)c2)cc1C (stereo not shown) [Compound 24C] | – | – | 87 | 113 | 116
29 | COc1ccc(CNC(C)c2ccc(C(F)(F)F)cc2)cc1C (stereo not shown) [Compound 24D] | – | – | 34 | 53 | 87
30 | COc1ccc(CNC(C)c2cccc(C#N)c2)cc1C (stereo not shown) [Compound 24E] | – | – | 35 | 71 | 94
31 | COc1ccc(CNC(C)c2ccc(C)c(C)c2)cc1C (stereo not shown) [Compound 24G] | – | – | 75 | 94 | 109
32 | COc1ccc(CNC(C)c2ccc(F)c(F)c2)cc1C (stereo not shown) [Compound 24I] | – | – | 55 | 84 | 109
33 | C[C@@H](NCCCc1cccc(OC(F)(F)F)c1)c1cccc2ccccc12 [Compound 24J] | – | – | 75 | 103 | –
34 | COc1cccc([C@@H](C)NCCCc2cc(F)ccc2F)c1 [Compound 24K] | – | – | 78 | 106 | –
35 | COc1cccc([C@@H](C)NCCCc2c(F)cccc2F)c1 [Compound 24L] | – | – | 62 | 105 | –
36 | COc1cccc([C@@H](C)NCCCc2cc(F)cc(F)c2)c1 [Compound 24M] | – | – | 99 | 134 | 132
37 | CC(NCCCc1ccccc1Cl)c1cccc(Cl)c1 (stereo not shown) [Compound 24O] | – | – | 58 | 114 | 137
38 | COc1cccc([C@@H](C)NC(C)CCc2cc(F)cc(F)c2)c1 (stereo partly shown) [Compound 24P] | – | – | 110 | 138 | 140
39 | COC(=O)c1cccc(C(C)NCc2ccc(OC)c(C)c2)c1 (stereo not shown) [Compound 24U] | – | – | 78 | 106 | 106
40 | CCOC(=O)COc1cccc(C(C)NCc2ccc(OC)c(C)c2)c1 (stereo not shown) [Compound 24V] | – | – | 71 | 98 | 127
41 | COc1ccc(CN[C@H](C)c2cccc3ccccc23)cc1Br [Compound 24X] | – | – | 124 | 109 | 126
42 | CCOc1ccc(CN[C@H](C)c2cccc3ccccc23)cc1Cl [Compound 24Y] | – | – | 127 | 120 | 119
43 | COc1ccc(CNC(C)c2cccc(SC)c2)cc1C (stereo not shown) [Compound 24Z] | – | – | 135 | 138 | 138
44 | CCOc1ccc(CN[C@H](C)c2cccc3ccccc23)cc1C [Compound 25A] | – | – | 114 | 120 | 122
45 | COc1cccc([C@@H](C)NCC=Cc2ccccc2)c1 [Compound 25E, (R)-N-(3-phenylprop-2-enyl)-1-(3-methoxyphenyl)ethylamine] | – | – | 122 | 129 | 132
46 | COc1cccc([C@@H](C)NCc2cccc3ccccc23)c1 [Compound 25F] | 76 | 85 | – | – | –
47 | COc1cccc([C@@H](C)NCC(C)=Cc2ccccc2)c1 [Compound 25G, (R)-N-(2-methyl-3-phenylprop-2-enyl)-1-(3-methoxyphenyl)ethylamine] | – | – | 99 | 115 | 130
48 | COc1cccc([C@@H](C)NC[C@H](C)C=Cc2ccccc2)c1 [Compound 25H, (R,R)-N-(2-methyl-4-phenybut-3-enyl)-1-(3-methoxyphenyl)ethylamine] | – | – | 89 | 107 | 115
49 | COc1cccc([C@H](C)NC[C@H](C)C=Cc2ccccc2)c1 [Compound 25I, (S,R)-N-(2-methyl-4-phenybut-3-enyl)-1-(3-methoxyphenyl)ethylamine] | – | – | 114 | 113 | 119
